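Exposure lasted 48 hours, with cells grown in 96-well plates and compounds tested at five concentrations. GI50 is the concentration that inhibits growth by half.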 Activity calls are given as the source filed them. Cut-off read from the data, not from the text of the source: active = GI50 up to about 1.1 µM and inactive = higher.
Tests used:
Experiment in all cases: growth of human tumour cells (NCI), 48 h
ACHN = system: ACHN
CAKI-1 = system: CAKI-1
CCRF-CEM = system: CCRF-CEM
HCC 2998 = system: HCC 2998
HT-29 = system: HT-29
MDA-MB-435 = system: MDA-MB-435
Malme-3M = system: Malme-3M
NCI-H226 = system: NCI-H226
NCI-H23 = system: NCI-H23
NCI-H522 = system: NCI-H522
OVCAR-3 = system: OVCAR-3
PC-3 = system: PC-3
RPMI-8226 = system: RPMI-8226
SF-295 = system: SF-295
SF-539 = system: SF-539
SK-MEL-28 = system: SK-MEL-28
SK-MEL-5 = system: SK-MEL-5
SN12C = system: SN12C
SNB-19 = system: SNB-19
MDA-MB-231 = system: MDA-MB-231

Measured: GI50

CCOC(=O)c1c(CN2CCNCC2)nc2ccc(Cl)cc2c1-c1ccccc1
inactive: ACHN 5.45 µM | CAKI-1 2.47 µM | CCRF-CEM 2.51 µM | HCC 2998 1.6 µM | HT-29 1.79 µM | MDA-MB-435 2.31 µM | Malme-3M 1.94 µM | NCI-H226 12.6 µM | NCI-H23 10.4 µM | NCI-H522 4.38 µM | OVCAR-3 6.95 µM | PC-3 2.54 µM | RPMI-8226 2.19 µM | SF-295 2.24 µM | SF-539 2.56 µM | SK-MEL-28 3.83 µM | SK-MEL-5 1.42 µM | SN12C 4.92 µM | SNB-19 12.8 µM

CS(=O)(=O)OC1CN2CCC1CC2 (stereo not given)
inactive: ACHN > 100 µM | CAKI-1 > 100 µM | CCRF-CEM > 100 µM | HT-29 > 100 µM | MDA-MB-231 > 100 µM | MDA-MB-435 > 100 µM | Malme-3M > 100 µM | NCI-H23 > 100 µM | NCI-H522 > 100 µM | OVCAR-3 > 100 µM | PC-3 > 100 µM | RPMI-8226 > 100 µM | SF-295 > 100 µM | SK-MEL-28 > 100 µM | SK-MEL-5 > 100 µM | SN12C > 100 µM | SNB-19 > 100 µM

CC(=O)Oc1ccc2cc(Oc3ccccc3)c(=O)oc2c1
inactive: ACHN > 100 µM | CAKI-1 > 100 µM | HCC 2998 > 100 µM | HT-29 > 100 µM | MDA-MB-231 > 100 µM | Malme-3M > 100 µM | NCI-H226 > 100 µM | NCI-H23 > 100 µM | NCI-H522 30.5 µM | OVCAR-3 46 µM | PC-3 > 100 µM | RPMI-8226 > 100 µM | SF-295 > 100 µM | SF-539 > 100 µM | SK-MEL-28 > 100 µM | SK-MEL-5 50.4 µM | SN12C > 100 µM | SNB-19 93.5 µM

CCOC(=O)C1C(c2ccccc2)C2(C#N)C(=N)OC1(C)C2(C#N)C#N (stereo not given)
inactive: ACHN 20.9 µM | CAKI-1 6.61 µM | CCRF-CEM 23.5 µM | HCC 2998 13.8 µM | HT-29 16 µM | MDA-MB-231 10.9 µM | MDA-MB-435 22.4 µM | Malme-3M 20.5 µM | NCI-H226 24.3 µM | NCI-H23 17.5 µM | PC-3 25.6 µM | RPMI-8226 20 µM | SF-295 36.2 µM | SF-539 18.1 µM | SK-MEL-5 10.5 µM | SN12C > 10 µM | SNB-19 40.6 µM

CN(C)C1(N(C)C)Oc2c(c(=O)n(C)c(=O)n2C)C(c2ccc(Br)cc2)C1(F)F (stereo not given)
inactive: ACHN > 100 µM | CAKI-1 > 100 µM | CCRF-CEM > 100 µM | HCC 2998 > 100 µM | MDA-MB-231 > 100 µM | MDA-MB-435 > 100 µM | NCI-H226 > 100 µM | NCI-H23 > 100 µM | OVCAR-3 > 100 µM | PC-3 > 100 µM | RPMI-8226 > 100 µM | SF-295 > 100 µM | SK-MEL-28 > 100 µM | SK-MEL-5 > 100 µM | SNB-19 > 100 µM

Cc1cc(C#N)c[n+](C)c1
inactive: ACHN > 100 µM | CAKI-1 > 100 µM | CCRF-CEM > 100 µM | HCC 2998 > 100 µM | HT-29 > 100 µM | MDA-MB-231 > 100 µM | Malme-3M > 100 µM | NCI-H226 > 100 µM | NCI-H23 > 100 µM | NCI-H522 > 100 µM | OVCAR-3 > 100 µM | PC-3 > 100 µM | SF-295 > 100 µM | SF-539 > 100 µM | SK-MEL-28 > 100 µM | SK-MEL-5 > 100 µM | SN12C > 100 µM | SNB-19 > 100 µM

COC(=O)C1CCC(=O)N1C(c1cc(OC)c(OC)c(OC)c1)c1cc(OC)c(OC)c(OC)c1 (stereo not given)
inactive: ACHN > 100 µM | HT-29 > 100 µM | MDA-MB-231 > 100 µM | MDA-MB-435 > 100 µM | NCI-H522 > 100 µM | OVCAR-3 > 100 µM | PC-3 > 100 µM | RPMI-8226 > 100 µM | SF-295 > 100 µM | SF-539 > 100 µM | SK-MEL-28 > 100 µM | SN12C > 100 µM | SNB-19 > 100 µM

CN(C)c1ccc(/C=N/c2ccc(-c3nc4ccccc4[nH]3)cc2)cc1
inactive: ACHN 59.3 µM | CAKI-1 > 100 µM | CCRF-CEM 37.7 µM | HT-29 39.5 µM | MDA-MB-231 32.8 µM | MDA-MB-435 > 100 µM | Malme-3M 24.3 µM | NCI-H226 > 100 µM | NCI-H23 > 100 µM | NCI-H522 56 µM | OVCAR-3 71.1 µM | PC-3 53.6 µM | RPMI-8226 36.1 µM | SF-295 46.6 µM | SF-539 90.4 µM | SK-MEL-28 > 100 µM | SK-MEL-5 56.9 µM | SN12C 40.6 µM | SNB-19 40 µM

Cc1ccc(S(=O)(=O)NC(=N)N(C)N=O)cc1
inactive: CAKI-1 > 100 µM | CCRF-CEM > 100 µM | HT-29 > 100 µM | MDA-MB-231 > 100 µM | MDA-MB-435 > 100 µM | Malme-3M > 100 µM | NCI-H226 > 100 µM | NCI-H23 > 100 µM | NCI-H522 > 100 µM | OVCAR-3 > 100 µM | PC-3 > 100 µM | RPMI-8226 > 100 µM | SF-295 > 100 µM | SF-539 > 100 µM | SK-MEL-28 > 100 µM | SN12C > 100 µM | SNB-19 > 100 µM

O=C1CSC(=S)N1c1ccco1
inactive: ACHN > 100 µM | CAKI-1 > 100 µM | CCRF-CEM > 100 µM | HT-29 > 100 µM | MDA-MB-231 31.8 µM | MDA-MB-435 24.2 µM | Malme-3M > 100 µM | NCI-H226 > 100 µM | NCI-H23 > 100 µM | NCI-H522 23.4 µM | OVCAR-3 77.8 µM | PC-3 71.3 µM | RPMI-8226 59.3 µM | SF-295 > 100 µM | SF-539 66.7 µM | SK-MEL-28 > 100 µM | SK-MEL-5 43 µM | SN12C 57.1 µM | SNB-19 > 100 µM

COc1cccc(/N=N/C(=N\NC(=O)c2ccc(C)cc2)c2ccc(N(CCC#N)CCC#N)cc2C)c1
inactive: ACHN > 100 µM | CAKI-1 > 100 µM | HCC 2998 > 100 µM | HT-29 > 100 µM | MDA-MB-231 63.1 µM | MDA-MB-435 64.3 µM | Malme-3M > 100 µM | NCI-H226 > 100 µM | NCI-H23 > 100 µM | OVCAR-3 37.6 µM | PC-3 64.6 µM | RPMI-8226 > 100 µM | SF-295 85.7 µM | SF-539 > 100 µM | SK-MEL-28 > 100 µM | SK-MEL-5 > 100 µM | SN12C > 100 µM | SNB-19 > 100 µM

C=C1CC(C)(c2cccc(Nc3nc4ccccc4c4occc34)c2)OC1=O (stereo not given)
inactive: ACHN 4.8 µM | CAKI-1 3.98 µM | CCRF-CEM 2.07 µM | HCC 2998 2.43 µM | HT-29 4.99 µM | MDA-MB-231 5.11 µM | MDA-MB-435 5.11 µM | Malme-3M 17.6 µM | NCI-H226 1.5 µM | OVCAR-3 4.8 µM | PC-3 5.52 µM | RPMI-8226 2.03 µM | SF-295 16.8 µM | SF-539 1.69 µM | SK-MEL-28 13.9 µM | SK-MEL-5 15.1 µM | SN12C 2.83 µM | SNB-19 17.2 µM

N=C(N)SCCON1C(=O)c2ccccc2C1=O
inactive: ACHN > 100 µM | CAKI-1 > 100 µM | CCRF-CEM > 100 µM | HT-29 > 100 µM | MDA-MB-231 > 100 µM | MDA-MB-435 > 100 µM | Malme-3M > 100 µM | NCI-H226 > 100 µM | NCI-H23 > 100 µM | NCI-H522 > 100 µM | OVCAR-3 > 100 µM | PC-3 > 100 µM | RPMI-8226 > 100 µM | SF-295 > 100 µM | SF-539 > 100 µM | SK-MEL-28 > 100 µM | SK-MEL-5 > 100 µM | SN12C > 100 µM | SNB-19 > 100 µM

Cc1ccc(C)c(N2C(=O)C(=O)c3c(C)ccc(C)c32)c1
inactive: ACHN 17.1 µM | CAKI-1 25.5 µM | HT-29 20.8 µM | MDA-MB-231 16.9 µM | MDA-MB-435 21.1 µM | Malme-3M 20.7 µM | NCI-H226 27.7 µM | NCI-H23 21 µM | NCI-H522 15.5 µM | OVCAR-3 16.3 µM | PC-3 23 µM | SF-295 22.9 µM | SF-539 16.7 µM | SK-MEL-28 33.5 µM | SK-MEL-5 14.8 µM | SN12C 26.8 µM | SNB-19 40.6 µM

CC(NC(=O)OCc1ccccc1)NC(=O)C(CC(=O)OC(C)(C)C)NC(=O)OC(C)(C)C (stereo not given)
inactive: ACHN > 100 µM | CAKI-1 > 100 µM | CCRF-CEM > 100 µM | HT-29 > 100 µM | MDA-MB-231 > 100 µM | MDA-MB-435 > 100 µM | Malme-3M > 100 µM | NCI-H226 > 100 µM | NCI-H23 > 100 µM | NCI-H522 > 100 µM | OVCAR-3 > 100 µM | PC-3 > 100 µM | RPMI-8226 > 100 µM | SF-295 > 100 µM | SF-539 > 100 µM | SK-MEL-28 > 100 µM | SK-MEL-5 > 100 µM | SN12C > 100 µM | SNB-19 > 100 µM

CC(C)(Sc1cc(C(C)(C)C)c(O)c(C(C)(C)C)c1)Sc1cc(C(C)(C)C)c(O)c(C(C)(C)C)c1 [PROBUCOL]
inactive: ACHN > 100 µM | CAKI-1 > 100 µM | CCRF-CEM > 100 µM | HT-29 > 100 µM | MDA-MB-231 > 100 µM | MDA-MB-435 > 100 µM | Malme-3M > 100 µM | NCI-H23 > 100 µM | NCI-H522 > 100 µM | PC-3 > 100 µM | RPMI-8226 > 100 µM | SF-295 > 100 µM | SF-539 > 100 µM | SK-MEL-28 > 100 µM | SK-MEL-5 > 100 µM | SN12C > 100 µM | SNB-19 > 100 µM

— ChEMBL document CHEMBL1201862, “PubChem BioAssay data set” (2004)
